Results taken from patent US11318077B2, “Retinaldehyde containing compositions and methods of use” (RODAN & FIELDS, LLC, priority 2017, dated 2022).

What was measured:
[1] = test system: mild to moderate lines and wrinkles, dullness and moderate dyschromia; assay: Tolerability assessments (subjective and objective), IRS compared with 0.1% Adapalene, 12 weeks; type: in vivo, human (women); settings: IRS vs 0.1% Adapalene
Excerpt: (§1) The objective of the study is to evaluate and compare the anti-aging efficacy and tolerability of 0.1% Adapalene compared to Intensive Renewing Serum over a 12-week period when used by women with mild to moderate lines and wrinkles, dullness and moderate dyschromia.
Subjects reported to the facility at Baseline for Expert Grader assessments of various facial photoaging and irritation parameters, subjective assessments of facial irritation, digital imaging of the face, replica sampling of the crow's foot area, capacitance and firmness/elasticity measurements of the face and completed a self-assessment questionnaire. Subjects were randomized to receive 1 of 2 investigational products for treatment to the entire face for 12 weeks. Subjects returned to the lab at Week 2 and Week 4 to have Expert Grader assessments, digital imaging and self-assessments repeated. At Weeks 8 and 12, subjects returned for Expert Grader assessments, digital imaging, replica sampling, capacitance and firmness/elasticity measurements and self-assessments.
(§2) Expert Grader Assessments: In addition to screening and selecting the final panel, an Expert Grader assessed the face of each subject for various irritation and efficacy parameters at Baseline and after 2, 4, 8 and 12 weeks of treatment. The scale that was used for each assessment parameter (unless otherwise indicated) is: 0=none, 1-3=mild, 4-5=moderate, […].
Irritation parameters: The Expert Grader assessed the face of each subject at each time point for the following irritation parameters using a 0-9 scale: Erythema, Dryness, Scaling, and Edema. Using a 0-9 scale, subjects were asked to rate their amount of: Burning, Stinging, Itching, Tightness, and Dryness.
Treatment Procedures: approximately 20-25 subjects assigned to each product per randomization. After the Baseline assessments and measurements had been completed, the subjects reported to the Treatment Technician, who dispensed a new container of their assigned product to the subject and instructed the subject to apply the product according to the Sponsor's instructions below:
Product C: Morning instructions: Follow your regular morning skincare routine. Evening instructions: Product C should be used once daily in the evening, after your regular cleanser. Open a capsule by twisting off the tail end of one capsule. Apply the serum over your entire face, including under the eyes and crow's feet. […] Avoid getting into eyes, In case of inadvertent eye contact, rinse eyes with plenty of water to remove product from eyes. […] Use one capsule per night. Follow with the rest of your evening skin care Regimen. Note: make sure that no water gets into the jar and that your hands are dry before use. Please ensure the jar is tightly closed after each use.
Product N: Morning instructions: Follow your regular morning skincare routine. Evening instructions: Product N should be used once daily in the evening, after your regular cleanser. Clean the skin gently with your regular cleanser and pat dry before applying Product N. Cover the entire face, including under the eyes and crow's feet, with a thin layer. […] Avoid product contact with eyes, lips and mouth. If contact occurs, immediately flush the area with water. […] Wash hands after use. […] Follow with the rest of your evening skin care Regimen.

[2] = test system: mild to moderate lines and wrinkles, dullness and moderate dyschromia; assay: Expert Grader clinical grading assessment of efficacy, IRS compared with 0.1% Adapalene; type: in vivo, human (women)
Excerpt: as §1, §2
(§3) Efficacy parameters: The assessments of efficacy were made using methods that would provide the Sponsor the most information on changes in the subject's skin over time. The methods that the Expert Grader used to assess efficacy are as follows: 1. Live Grading: Absolute scores from viewing the subject's face were assigned using a 0-9 scale. Live grades were conducted at each time point. 2. Baseline Aided Grading: Absolute scores from viewing the subject's face were assigned using a 0-9 scale at the Baseline visit and the Expert Grader used the subject's Baseline photo for reference at follow-up visits. Baseline aided grading was conducted at each time point other than at Baseline. 3. Comparison Grading from Photos: Comparison grading was performed after the conclusion of the study. The Expert Grader compared the photos from each time point to Baseline for improvement/worsening using the below scale: −4=Marked worsening, −3=Moderate worsening, −2=Mild worsening, −1=Barely perceptible worsening, −0.1=Forced choice worsening, 0=No change, 0.1=Forced choice improvement, 1=Barely perceptible improvement, 2=Mild improvement, 3=Moderate improvement, and 4=Marked improvement.
The following efficacy parameters were assessed by the Expert Grader along with the assessment method(s) are listed: 1. Skin Texture (softness/smoothness) [tactile]: Live grading, 2. Skin Texture [visual]: Live grading/Baseline aided, 3. Fine Lines (eye area including crow's feet): Live grading/Baseline aided/Comparison scores from photos, 4. Wrinkles (eye area, including crows feet): Live grading, Baseline aided, Comparison scores from photos, 5. Pore appearance: Comparison scores from photos, 6. Firmness: Live grading, 7. Sagging (nasolabial fold area): Comparison scores from photos, 8. Discrete hyperpigmentation: Comparison scores from photos, 9. Mottled hyperpigmentation: Comparison scores from photos, 10. Skin tone evenness: Comparison scores from photos, 11. Radiance/luminosity/glow (defined as Dull to luminous/shiny): Live grading, 12. Sallowness (sallow to rosy): Live grading/Baseline aided, 13. Overall healthy skin appearance: Comparison scores from photos, 14. Overall photodamage: Live grading/Baseline aided, 15. Pinch recoil (under the eye): Live grading (For this assessment, a 0-9 score will not be assigned. Per the Sponsor, the evaluator will pinch the subject's skin at the designated site using the thumb and forefinger and hold the skin in place for approximately 2 seconds. A stopwatch will be started upon release and the time required for the subject's skin to return to its original conformation will be measured to the nearest tenth of a second. A decrease in pinch recoil times over time indicates an improvement in skin “bounce-back” or elasticity/resiliency.). […]

[3] = test system: mild to moderate lines and wrinkles, dullness and moderate dyschromia; assay: Comparison grading from photos, IRS compared with 0.1% Adapalene; type: in vivo, human (women)
Procedure: as §3
The following efficacy parameters were assessed by the Expert Grader along with the assessment method(s) are listed: 1. Skin Texture (softness/smoothness) [tactile]: Live grading, 2. Skin Texture [visual]: Live grading/Baseline aided, 3. Fine Lines (eye area including crow's feet): Live grading/Baseline aided/Comparison scores from photos, 4. […] Pinch recoil (under the eye): Live grading (For this assessment, a 0-9 score will not be assigned. Per the Sponsor, the evaluator will pinch the subject's skin at the designated site using the thumb and forefinger and hold the skin in place for approximately 2 seconds. A stopwatch will be started upon release and the time required for the subject's skin to return to its original conformation will be measured to the nearest tenth of a second. A decrease in pinch recoil times over time indicates an improvement in skin “bounce-back” or elasticity/resiliency.). […]

MelanoDerm tissues = assay: Cytotoxicity by microscopic observation of MelanoDerm tissues; type: cell-based; settings: 2%; 2 weeks
Procedure: Tissues were equilibrated at 37° C. for 60 min. and undiluted samples (25 μl) of test materials were applied on top of tissues in duplicates. DMI and kojic acid were applied at 2.5% and 2% (w:v) respectively (dissolved in double distilled water). Tissue culture was pursued in the pigmentation-inducing medium […]-113 for 14 days, with reapplication of test materials and changes of tissue culture media every 2-3 days. Results and Discussion: From the macroscopic documentation of all the MelanoDerm tissues at the end of the experiment, differences of color are clearly visible between the solvent controls and some test materials. Table 34 informs whether cytotoxicity may have played a role in these differences. Table 34 also reports the non-invasive MelanoDerm color measurement performed with portable spectrophotometer. [table]

[4] = test system: melanin production in MelanoDerm™ skin substitute; assay: Melanin-modulatory effect in MelanoDerm skin substitutes (color measurement, melanin extraction); type: cell-based; settings: 2%; 2 weeks
Procedure: Objective: The objective of this assay was to determine the ability of the test materials (dimethylisosorbide [DMI], retinoic acid [ATRA], 10% w/w NEAR-1 in dimethylisosorbide [NEAR-1], Niacinamide PC [NAD], and Kojic Acid [KA]) and combinations thereof to inhibit melanin production in MelanoDerm™ skin substitute model. The effect of these experimental conditions on the secretion of the proinflammatory cytokine IL-8 was also assessed, as a surrogate for skin irritation potential.
Tissues were equilibrated at 37° C. for 60 min. and undiluted samples (25 μl) of test materials were applied on top of tissues in duplicates. DMI and kojic acid were applied at 2.5% and 2% (w:v) respectively (dissolved in double distilled water). Tissue culture was pursued in the pigmentation-inducing medium EPI-100-NMM-113 for 14 days, with reapplication of test materials and changes of tissue culture media every 2-3 days.
At the end of the experiment, tissue pigmentation was quantified non-invasively with NS800 portable spectrophotometer (3NH Technology Co., Ltd., China). This instrument is a reflectance spectrophotometer that measures reflected light in the visible spectrum (range: 400-700 nm) recording colors in a three-dimensional space known as CIEL*a*b* color space. In this project, the L* value representing the lightness of the color was used for color assessment. For the purpose of this experiment, the range of the L* parameter spanned from 17.8 (black background) to 87.8 (white background).
For melanin quantification, the MelanoDerms were frozen, solubilized in Solvable™ (Perkin Elmer) and melanin was extracted at 95° C. overnight. The colorimetric signals proportional to the concentration of extracted melanin, as well as those proportional to the IL-8 in the tissue-conditioned medium in the ELISA test were quantified with Molecular Devices microplate spectrophotometer MAX190 at 490 nm and 405 nm.

## COc1ccc(-c2ccc3cc(C(=O)O)ccc3c2)cc1C12CC3CC(CC(C3)C1)C2 [Adapalene, adapalene]
[1]
  Burning (subjective): somewhat greater degree of perceived burning
  Dryness (objective, clinical): greater degree of tactile dryness
  Erythema (objective, clinical): somewhat greater degree of erythema
  Scaling (objective, clinical): greater degree of visual scaling
  Stinging (subjective): somewhat greater degree of perceived stinging
[1]; most notably at Week 4
  Dryness/Tightness (subjective): slightly greater perception of dryness/tightness
[2]; by weeks 8 & 12
  Elasticity/Resiliency, clinical grading: No improvement
  Skin Texture (Visual), clinical grading: slight improvement
[2]; comparable first 4 weeks, mild improvements by week 8, course to week 12
  Fine Lines, clinical grading: remains constant
[2]; over 12 weeks
  Radiance/Luminosity/Glow, clinical grading: Mild improvement persists through week 8
  Skin Texture (Tactile), clinical grading: By week 12, no improvement
[3]; IRS vs 0.1% Adapalene
  Photo comparison mean scores (overall): mean scores slightly favored Adapalene
[3]; over 12 weeks
  Discrete Hyperpigmentation, photo comparison: slightly better results
  Mottled Hyperpigmentation, photo comparison: progressive & slightly better result

## O=c1cc(CO)occ1O [KA, Kojic Acid]
MelanoDerm tissues
  Cytotoxicity: Yes
[4]
  Color measurement (whitening units): 9.8 whitening units
  Melanin Content: 38 µg/mL
  Melanin Content (% control): 38 % control
  Raw *L values: 55.3
